1 compound from PMC12524732 (2025) can be followed below.

For assay [1], the system named is dsDNA duplex (DNA, duplex) GTAACTAGTTAACGATC/GATCGTTAACTAGTTAC
As to the kind of experiment: 1H-NMR titration. The note with it: 20 mM KCl; 10 mM KH2PO4, pH 7.0, 25 °C; 0.2 mM DNA; up to 4 equivalents; no shifts.

Assay [2] relates to mutTel24 (DNA, G4) TTGGGTTAGGGTTAGGGTTAGGGA
As to the kind of experiment: 1H-NMR titration. The note with it: 20 mM KCl; 10 mM KH2PO4, pH 7.0, 25 °C; 0.2 mM DNA; up to 4 equivalents; no shifts.

The subject of assay [3] is c-MYC (DNA, G4) TGAGGGTGGGTAGGGTGGGTAA
As to the kind of experiment: 1H-NMR titration. To be noted: 20 mM KCl; 10 mM KH2PO4, pH 7.0, 25 °C; 0.2 mM DNA; up to 8 equivalents; shifts up to ~70 Hz, mainly 3′ G-quartet.

Assay [4] shares this test system. As to the kind of experiment: ITC. The note with it: 20 mM KCl; 10 mM KH2PO4, pH 7.0, 25 °C; ~20 µM DNA; up to 8 equivalents; Kb and n not determinable.
Assay [5] deals with c-KIT2 (DNA, G4) CGGGCGGGCGCTAGGGAGGGT
In words: ITC. To be noted: 20 mM KCl; 10 mM KH2PO4, pH 7.0, 25 °C; ~20 µM DNA; up to 8 equivalents; Kb and n not determinable.

The test system is the same in assay [6]. In words: 1H-NMR titration. To be noted: 20 mM KCl; 10 mM KH2PO4, pH 7.0, 25 °C; 0.2 mM DNA; up to 8 equivalents; shifts up to ~50 Hz, 5′ G-quartet.

Molecules are shown by their SMILES.

Take `CC[C@]1(O)C[C@H]2CN(CCc3c([nH]c4ccccc34)[C@@](C(=O)OC)(c3cc4c(cc3OC)N(C=O)[C@H]3[C@@](O)(C(=O)OC)[C@H](OC(C)=O)[C@]5(CC)C=CCN6CC[C@]43[C@@H]65)C2)C1`: the binding entry in assay [1] was “no”; in assay [2], “no”; in assay [3] it was “weak”; in assay [6], “weak”. The “ΔH°” value in assay [4] is −11.7 ± 2.0 kJmol^−1; in assay [5], −52.8 ± 5.8 kJmol^−1.
